Entries after “also recorded” stand apart in the source; their conditions may differ.
Key:
Assay type in all cases: cell-based
chicken CTR [1] = assay: cAMP/PKA pGL3-CRE-luciferase reporter assay, CTR + pcDNA in CHO cells; details: for EC50: CTR + pcDNA, CHO cells, pGL3-CRE-luciferase, 10^−12 M to 10^−6 M, 6 h, mean ± SEM, n = 3, read-out: EC50, cAMP/PKA signaling pathway; for activation (cAMP production), in words: independent CTR
Experimental: (§1) Chinese hamster ovary (CHO) cells were cultured in Dulbecco’s modified Eagle’s medium (DMEM) supplemented with 10% (vol/vol) fetal bovine serum (HyClone, Logan, UT, USA), 100 U/mL penicillin G and 100 μg/mL streptomycin. The cells were maintained in a 90 mm culture dish (Nunc, Rochester, NY, USA) and incubated at 37 °C with 5% CO2. To investigate the signaling pathways associated with each receptor in CHO cells, three different reporter systems (pGL3-CRE-luciferase, pGL4-SRE-luciferase, and pGL3-NFAT-RE-luciferase) were utilized to monitor intracellular cAMP/PKA and MAPK/ERK signaling pathways and calcium mobilization of the activated receptors, respectively.
(§2) Prior to the transfection procedure, the cells were initially cultured in 6-well plates (Nunc, Rochester, NY, USA), maintaining a seeding density of approximately 300,000 cells per well. Upon achieving approximately 70% confluence, the cells underwent a co-transfection process. This procedure entailed the introduction of 700 ng of various luciferase reporter constructs (namely, pGL3-CRE-luciferase, pGL4-SRE-luciferase, or pGL3-NFAT-RE-luciferase) combined with 200 ng of a specific receptor plasmid (CTR or CLR) and 1000 ng of either RAMP1, RAMP2, RAMP3 expression plasmids, or alternatively, the empty pcDNA3.1 (+) vector. A volume of 5.7 μL of PEI MAX was used in 200 μL of buffer following the manufacturer’s protocol. After 24 h of incubation, the transfected CHO cells were subcultured in 96-well plates and passaged for an additional 24 h before peptide treatment. Then, the medium from the 96-well plates was removed, and the cells were treated with chicken CT/CGRP-containing medium (or untreated medium as a control) at concentrations ranging from 10^−12 M to 10^−6 M for 6 h. Subsequently, the cells were harvested for luciferase assays by lysing them in 1 × passive lysis buffer. To measure the luciferase activity of the cell lysate, 40 μL of luciferase assay reagent (Promega, Madison, WI, USA) was mixed with the cell lysate following the manufacturer’s instructions. The fluorescence activity of the luciferase in each treatment group was measured using a multimode microplate reader (TriStar LB941, Berthold Technologies, Bad Wildbad, Germany). Finally, the fluorescence activity of each treatment group was expressed as a relative increase ratio compared to the control group.

chicken CTR + RAMP1 = assay: cAMP/PKA pGL3-CRE-luciferase reporter assay, CTR + RAMP1 in CHO cells; details: 10^−12 M to 10^−6 M, 6 h, mean ± SEM, n = 3, read-out: EC50, cAMP/PKA signaling pathway
Experimental: as §1
(§3) Prior to the transfection procedure, the cells were initially cultured in 6-well plates (Nunc, Rochester, NY, USA), maintaining a seeding density of approximately 300,000 cells per well. Upon achieving approximately 70% confluence, the cells underwent a co-transfection process. […] The fluorescence activity of the luciferase in each treatment group was measured using a multimode microplate reader (TriStar LB941, Berthold Technologies, Bad Wildbad, Germany). Finally, the fluorescence activity of each treatment group was expressed as a relative increase ratio compared to the control group.

chicken CTR + RAMP2 [2] = assay: cAMP/PKA pGL3-CRE-luciferase reporter assay, CTR + RAMP2 in CHO cells; details: 10^−12 M to 10^−6 M, 6 h, mean ± SEM, n = 3, read-out: EC50, cAMP/PKA signaling pathway
Experimental: as §1, §3

chicken CLR = assay: cAMP/PKA pGL3-CRE-luciferase reporter assay, CLR + pcDNA in CHO cells; details: for EC50: CLR + pcDNA, CHO cells, pGL3-CRE-luciferase, 10^−12 M to 10^−6 M, 6 h, mean ± SEM, n = 3, read-out: EC50, cAMP/PKA signaling pathway; for activation (cAMP production), in words: independent CLR
Experimental: as §1, §2

chicken CLR + RAMP1 [3] = assay: cAMP/PKA pGL3-CRE-luciferase reporter assay, CLR + RAMP1 in CHO cells; details: for EC50: CLR + RAMP1, CHO cells, pGL3-CRE-luciferase, 10^−12 M to 10^−6 M, 6 h, mean ± SEM, n = 3, read-out: EC50, cAMP/PKA signaling pathway
Experimental: as §1
as §2, with “Subsequently, the cells were harvested for luciferase assays by lysing them in 1 × passive lysis buffer. To measure the luciferase activity of the cell lysate, 40 μL of luciferase assay reagent (Promega, Madison, WI, USA) was mixed with the cell lysate following the manufacturer’s instructions.” left out

chicken CLR + RAMP2 [4] = assay: cAMP/PKA pGL3-CRE-luciferase reporter assay, CLR + RAMP2 in CHO cells; details: 10^−12 M to 10^−6 M, 6 h, mean ± SEM, n = 3, read-out: EC50, cAMP/PKA signaling pathway
Experimental: as §1, §3

chicken CTR [5] = assay: MAPK/ERK pGL4-SRE-luciferase reporter assay, CTR + pcDNA in CHO cells; details: 10^−12 M to 10^−6 M, 6 h, mean ± SEM, n = 3, read-out: EC50, MAPK/ERK signaling pathway
Experimental: as §1, §3

chicken CTR + RAMP2 [6] = assay: MAPK/ERK pGL4-SRE-luciferase reporter assay, CTR + RAMP2 in CHO cells; details: 10^−12 M to 10^−6 M, 6 h, mean ± SEM, n = 3, read-out: EC50, MAPK/ERK signaling pathway
Experimental: as §1, §3

chicken CLR + RAMP1 [7] = assay: MAPK/ERK pGL4-SRE-luciferase reporter assay, CLR + RAMP1 in CHO cells; details: 10^−12 M to 10^−6 M, 6 h, mean ± SEM, n = 3, read-out: EC50, MAPK/ERK signaling pathway
Experimental: as §1, §3

chicken CLR + RAMP2 [8] = assay: MAPK/ERK pGL4-SRE-luciferase reporter assay, CLR + RAMP2 in CHO cells; details: 10^−12 M to 10^−6 M, 6 h, mean ± SEM, n = 3, read-out: EC50, MAPK/ERK signaling pathway
Experimental: as §1, §3

chicken CLR + RAMP3 [9] = assay: MAPK/ERK pGL4-SRE-luciferase reporter assay, CLR + RAMP3 in CHO cells; details: 10^−12 M to 10^−6 M, 6 h, mean ± SEM, n = 3, read-out: EC50, MAPK/ERK signaling pathway
Experimental: as §1, §3

chicken CTR [10] = assay: Calcium pGL3-NFAT-RE-luciferase reporter assay, CTR + pcDNA in CHO cells; details: 10^−12 M to 10^−6 M, 6 h, mean ± SEM, n = 3, read-out: EC50, calcium signaling pathway
Experimental: as §1, §3

chicken CTR + RAMP3 = assay: Calcium pGL3-NFAT-RE-luciferase reporter assay, CTR + RAMP3 in CHO cells; details: 10^−12 M to 10^−6 M, 6 h, mean ± SEM, n = 3, read-out: EC50, calcium signaling pathway
Experimental: as §1, §3

chicken CLR + RAMP1 [11] = assay: Calcium pGL3-NFAT-RE-luciferase reporter assay, CLR + RAMP1 in CHO cells; details: 10^−12 M to 10^−6 M, 6 h, mean ± SEM, n = 3, read-out: EC50, calcium signaling pathway
Experimental: as §1, §3

chicken CLR + RAMP3 [12] = assay: Calcium pGL3-NFAT-RE-luciferase reporter assay, CLR + RAMP3 in CHO cells; details: 10^−12 M to 10^−6 M, 6 h, mean ± SEM, n = 3, read-out: EC50, calcium signaling pathway
Experimental: as §1, §3

chicken CTR [13] = assay: Western blot CREB phosphorylation, CTR in CHO cells; details: 10 nM, 10 min, n = 3
Experimental: (§4) To assess whether the activation of chicken CTR and CLR, along with the presence of RAMPs, can augment the phosphorylation levels of cAMP response element-binding protein (CREB), 200 ng of CTR or CLR expression plasmids were combined with 1000 ng of chicken RAMPs or an empty pcDNA3.1 (+) vector in a 100 μL buffer. The resulting mixture was then transfected into CHO cells in a 12-well plate (Nunc, Rochester, NY, USA) using 3.6 μL of PEI MAX transfection reagent. After a 24 h incubation period, the cells were exposed to chicken CT (10 nM) or CGRP (10 nM) for 10 min. Subsequently, the culture medium was removed, and the cells were lysed according to the manufacturer’s instructions. Western blot analysis was performed to quantify the levels of CREB and phosphorylated CREB (p-CREB). The optical densities were analyzed and normalized using the software, ImageJ 1.52a (National Institutes of Health, Bethesda, MD, USA). The relative expression of p-CREB/CREB was determined by calculating the ratio of the optical density to that of the control without peptide treatment (0 min).

chicken CTR + RAMPs = assay: Western blot CREB phosphorylation, CTR + RAMPs in CHO cells; details: 10 nM, 10 min, n = 3
Experimental: as §4

[14] = tested on: chicken CTR in the absence or presence of RAMPs; assay: cAMP/PKA pGL3-CRE-luciferase reporter assay, CTR without and with RAMPs compared; details: for effect of RAMP co-expression on sensitivity of CTR: CHO cells, pGL3-CRE-luciferase
Experimental: as §1
as §2, with “Subsequently, the cells were harvested for luciferase assays by lysing them in 1 × passive lysis buffer. To measure the luciferase activity of the cell lysate, 40 μL of luciferase assay reagent (Promega, Madison, WI, USA) was mixed with the cell lysate following the manufacturer’s instructions.” left out

[15] = tested on: chicken CLR in the absence or presence of RAMPs; assay: cAMP/PKA pGL3-CRE-luciferase reporter assay, CLR without and with RAMPs compared; details: for effect of RAMP co-expression on sensitivity of CLR: CHO cells, pGL3-CRE-luciferase
Experimental: as §1, §2

Substance	EC50 (chicken CTR [1]) [nM]	activation (cAMP production), in words (chicken CTR [1])	EC50 (chicken CTR + RAMP1) [nM]	EC50 (chicken CTR + RAMP2 [2]) [nM]	EC50 (chicken CLR) [nM]	activation (cAMP production), in words (chicken CLR)	EC50 (chicken CLR + RAMP1 [3]) [nM]	EC50 (chicken CLR + RAMP2 [4]) [nM]	EC50 (chicken CTR [5]) [nM]	EC50 (chicken CTR + RAMP2 [6]) [nM]	EC50 (chicken CLR + RAMP1 [7]) [nM]	EC50 (chicken CLR + RAMP2 [8]) [nM]	EC50 (chicken CLR + RAMP3 [9]) [nM]	EC50 (chicken CTR [10]) [nM]	EC50 (chicken CTR + RAMP3) [nM]	EC50 (chicken CLR + RAMP1 [11]) [nM]	EC50 (chicken CLR + RAMP3 [12]) [nM]	CREB phosphorylation (p-CREB/CREB vs. control, 0 min) (chicken CTR [13])	CREB phosphorylation (p-CREB/CREB vs. control, 0 min) (chicken CTR + RAMPs)	effect of RAMP co-expression on sensitivity of CTR [14]	other results
calcitonin [CT]	0.15 ± 0.04	strongly activates	0.77 ± 0.07	0.67 ± 0.1	0.75 ± 0.21	strongly activates	3.3 ± 0.96	0.93 ± 0.15	0.15 ± 0.05	2.09 ± 0.42	0.89 ± 0.2	0.38 ± 0.09	1 ± 0.45	61.1 ± 8.55	> 100	5.81 ± 5.75	32.3 ± 30.3	significantly increased the CREB phosphorylation	significantly increased the CREB phosphorylation	does not markedly influence the sensitivity of chicken CTR for CT; also recorded: a slight decrease in sensitivity towards CT	effect of RAMP co-expression on sensitivity of CLR [15]: a slight reduction in chicken CLR’s sensitivity to CT in the presence of RAMP1; rank order of receptor sensitivity ([15]; CLR without/with RAMPs): CLR ≈ CLR + RAMP2 ≈ CLR + RAMP3 > CLR + RAMP1; EC50 ([15]; CLR without/with RAMPs, read-out: EC50 range over CLR, CLR + RAMP2, CLR + RAMP3, CLR + RAMP1): 0.75 to 3.3 nM
calcitonin gene-related peptide [CGRP]	2.35 ± 0.63	preferentially activates CTR	0.1 ± 0.01	1.63 ± 0.19	> 100	no effect on CLR	0.26 ± 0.03	40.9 ± 6.76	6.73 ± 1.78	10.4 ± 1.12	0.66 ± 0.11	90.9 ± 17.4	4.31 ± 1.73	> 100	> 100	0.15 ± 0.11	> 100	significantly increased the CREB phosphorylation	significantly increased the CREB phosphorylation	co-expression of RAMP1 or RAMP3 significantly increased the sensitivity of CTR to CGRP	EC50 of CGRP relative to CT (chicken CLR + RAMP1 [3]; CLR in the presence of RAMP1): approximately tenfold lower than CT; rank order of receptor sensitivity ([14]; CTR without/with RAMPs): CTR + RAMP1 ≈ CTR + RAMP3 > CTR + RAMP2 ≈ CTR; effect of RAMP co-expression on sensitivity of CLR [15]: a significant increase in CLR’s sensitivity to CGRP with RAMP1 and RAMP3 co-expression; also recorded: RAMP2 co-expression led to a limited enhancement in sensitivity; rank order of receptor sensitivity ([15]; CLR without/with RAMPs): CLR + RAMP1 > CLR + RAMP3 >> CLR + RAMP2 >> CLR
